Laboratory results published in ChEMBL document CHEMBL5113493, “4th generation nonsteroidal aromatase inhibitors: An iterative SAR-guided design, synthesis, and biological evaluation towards picomolar dual binding inhibitors” (Eur J Med Chem, 2022).

Columns and labels:
[1] = tested on: MCF-10A; test: Cytotoxicity against human MCF-10A cells at 1 uM measured after 48 hrs by BrdU colorimetric immunoassay; type: toxicity, cell-based
[2] = tested on: MDA-MB-231; test: Cytotoxicity against human MDA-MB-231 cells at 1 uM measured after 48 hrs by BrdU colorimetric immunoassay; type: toxicity, cell-based; settings: mda-mb-231, 48 h
[3] = biological target: T1, Aromatase (Homo sapiens, UniProt P11511); type: cell-based, JEG-3
T1 sequence (P11511 whole entry): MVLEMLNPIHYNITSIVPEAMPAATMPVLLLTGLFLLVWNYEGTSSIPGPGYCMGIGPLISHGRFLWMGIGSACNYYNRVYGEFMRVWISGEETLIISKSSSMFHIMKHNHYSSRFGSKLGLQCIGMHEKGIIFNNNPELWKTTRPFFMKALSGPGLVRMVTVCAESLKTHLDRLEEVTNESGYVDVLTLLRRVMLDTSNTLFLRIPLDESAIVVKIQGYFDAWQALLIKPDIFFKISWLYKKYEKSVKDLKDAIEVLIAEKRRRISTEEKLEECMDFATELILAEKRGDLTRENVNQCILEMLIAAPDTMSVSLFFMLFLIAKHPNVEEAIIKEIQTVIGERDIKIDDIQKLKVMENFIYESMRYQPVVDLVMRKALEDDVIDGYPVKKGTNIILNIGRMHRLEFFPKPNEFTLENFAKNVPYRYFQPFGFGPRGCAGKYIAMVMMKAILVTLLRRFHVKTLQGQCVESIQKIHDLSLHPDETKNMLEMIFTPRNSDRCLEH

[4] = biological target: Cytochrome P450 2C19 (Homo sapiens, UniProt P33261)
Sequence of Cytochrome P450 2C19 (P33261 whole entry): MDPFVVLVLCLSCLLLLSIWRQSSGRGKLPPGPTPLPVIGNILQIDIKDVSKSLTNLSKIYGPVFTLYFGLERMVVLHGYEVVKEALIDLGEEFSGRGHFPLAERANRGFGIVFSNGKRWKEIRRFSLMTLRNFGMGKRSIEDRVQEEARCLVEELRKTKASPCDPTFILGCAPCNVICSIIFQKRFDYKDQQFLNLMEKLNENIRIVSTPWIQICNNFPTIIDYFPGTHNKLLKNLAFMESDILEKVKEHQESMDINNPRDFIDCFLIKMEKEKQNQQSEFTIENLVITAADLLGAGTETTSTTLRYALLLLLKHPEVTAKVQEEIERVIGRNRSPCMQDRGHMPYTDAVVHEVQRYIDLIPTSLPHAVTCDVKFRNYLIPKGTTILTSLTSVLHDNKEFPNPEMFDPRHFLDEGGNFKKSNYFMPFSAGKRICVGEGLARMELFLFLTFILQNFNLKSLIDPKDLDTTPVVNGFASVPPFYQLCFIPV

[5] = biological target: T2, Cytochrome P450 1A2 (Homo sapiens, UniProt P05177)
T2 sequence (P05177 whole entry): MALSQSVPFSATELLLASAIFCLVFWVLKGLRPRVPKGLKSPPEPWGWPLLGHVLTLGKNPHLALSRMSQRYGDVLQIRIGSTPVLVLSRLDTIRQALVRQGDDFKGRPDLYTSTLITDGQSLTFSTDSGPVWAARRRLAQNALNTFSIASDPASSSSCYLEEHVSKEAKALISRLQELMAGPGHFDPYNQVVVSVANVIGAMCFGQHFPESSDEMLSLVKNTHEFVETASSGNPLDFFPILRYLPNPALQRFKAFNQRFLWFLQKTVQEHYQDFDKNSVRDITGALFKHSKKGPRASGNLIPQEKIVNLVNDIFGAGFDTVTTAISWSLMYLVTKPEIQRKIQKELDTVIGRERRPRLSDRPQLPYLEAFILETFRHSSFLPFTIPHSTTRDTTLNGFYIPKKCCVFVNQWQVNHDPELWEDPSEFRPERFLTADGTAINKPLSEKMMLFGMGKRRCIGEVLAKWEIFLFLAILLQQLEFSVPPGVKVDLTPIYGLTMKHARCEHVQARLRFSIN

[6] = biological target: Cytochrome P450 3A4 (Homo sapiens, UniProt P08684)
Sequence of Cytochrome P450 3A4 (P08684 whole entry): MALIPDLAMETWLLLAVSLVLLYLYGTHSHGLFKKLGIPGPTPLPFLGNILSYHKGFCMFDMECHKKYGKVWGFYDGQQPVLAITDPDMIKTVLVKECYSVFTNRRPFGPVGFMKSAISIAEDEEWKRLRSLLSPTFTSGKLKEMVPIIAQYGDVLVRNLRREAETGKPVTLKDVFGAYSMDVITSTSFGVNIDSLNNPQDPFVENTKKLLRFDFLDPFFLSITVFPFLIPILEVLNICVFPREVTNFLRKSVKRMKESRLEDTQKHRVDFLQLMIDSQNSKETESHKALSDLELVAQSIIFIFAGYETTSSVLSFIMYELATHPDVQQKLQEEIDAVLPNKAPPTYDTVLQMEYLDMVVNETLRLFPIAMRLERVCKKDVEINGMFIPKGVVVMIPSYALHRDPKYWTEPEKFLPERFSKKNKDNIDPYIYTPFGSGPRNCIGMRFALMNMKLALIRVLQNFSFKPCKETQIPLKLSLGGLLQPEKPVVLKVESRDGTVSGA

[7] = biological target: Cytochrome P450 2D6 (Homo sapiens, UniProt P10635)
Sequence of Cytochrome P450 2D6 (P10635 whole entry): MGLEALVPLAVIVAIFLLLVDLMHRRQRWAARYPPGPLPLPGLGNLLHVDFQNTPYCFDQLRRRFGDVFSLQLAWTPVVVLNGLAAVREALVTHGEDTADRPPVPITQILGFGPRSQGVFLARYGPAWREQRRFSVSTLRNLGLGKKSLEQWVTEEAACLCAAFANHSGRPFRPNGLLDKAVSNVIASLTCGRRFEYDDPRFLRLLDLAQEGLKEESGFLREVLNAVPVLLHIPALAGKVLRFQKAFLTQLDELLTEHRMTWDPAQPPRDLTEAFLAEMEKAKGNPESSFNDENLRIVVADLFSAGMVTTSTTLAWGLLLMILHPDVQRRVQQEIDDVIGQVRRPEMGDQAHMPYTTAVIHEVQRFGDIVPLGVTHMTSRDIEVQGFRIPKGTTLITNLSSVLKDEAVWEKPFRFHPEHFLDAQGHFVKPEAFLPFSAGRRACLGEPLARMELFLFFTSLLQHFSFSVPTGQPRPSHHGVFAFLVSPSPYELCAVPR

[8] = biological target: Cytochrome P450 2C9 (Homo sapiens, UniProt P11712)
Sequence of Cytochrome P450 2C9 (P11712 whole entry): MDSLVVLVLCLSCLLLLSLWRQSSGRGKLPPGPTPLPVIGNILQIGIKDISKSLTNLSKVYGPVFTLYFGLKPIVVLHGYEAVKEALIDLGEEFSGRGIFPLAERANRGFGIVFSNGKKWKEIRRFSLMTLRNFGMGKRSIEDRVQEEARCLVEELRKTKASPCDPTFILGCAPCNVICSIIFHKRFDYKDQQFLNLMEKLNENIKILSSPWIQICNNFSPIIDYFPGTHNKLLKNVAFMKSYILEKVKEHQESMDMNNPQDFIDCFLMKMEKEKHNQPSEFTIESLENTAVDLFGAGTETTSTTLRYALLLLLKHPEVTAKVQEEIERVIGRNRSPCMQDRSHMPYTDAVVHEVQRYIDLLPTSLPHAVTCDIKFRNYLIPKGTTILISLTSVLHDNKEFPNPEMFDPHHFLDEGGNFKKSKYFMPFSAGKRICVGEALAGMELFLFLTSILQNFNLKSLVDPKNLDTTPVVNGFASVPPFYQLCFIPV

IC50 [3] [nM] | SMILES | further results
– | COc1ccc2cc(C(c3ccc(F)cc3)n3cncn3)oc2c1 (stereo not drawn) | Activity [1]: Non-Toxic; Activity [2]: Non-Toxic
0.01 | CCC#CCOc1ccc2c(=O)c3ccc(Cn4ccnc4)cc3oc2c1 | –
0.77 | CCC#CCOc1cc(Cn2ccnc2)c2oc3ccccc3c(=O)c2c1 | –
0.01 | CCC#CCOc1cc(Cn2ccnc2)c2c(=O)c3ccccc3oc2c1 | –
4.1 | CC#CCOc1ccc2cc(C(c3ccc(F)cc3)n3cncn3)oc2c1 (stereo not drawn) | –
0.53 | CC#CCOc1ccc2cc(C(c3ccc(Cl)cc3)n3cncn3)oc2c1 (stereo not drawn) | –
30.3 | Oc1ccc(C(c2cc3cc(Cl)ccc3o2)n2cncn2)cc1 (stereo not drawn) | –
0.39 | Oc1ccc2cc(C(c3ccc(F)cc3)n3cncn3)oc2c1 (stereo not drawn) | Activity [1]: Non-Toxic; Activity [2]: Non-Toxic
0.51 | CCC#CCOc1ccc2cc(C(c3ccc(F)cc3)n3cncn3)oc2c1 (stereo not drawn) | Activity [1]: Non-Toxic; Activity [2]: Non-Toxic
> 1000 | CCC#CCOc1ccc(C(c2cc3cc(Cl)ccc3o2)n2cncn2)cc1 (stereo not drawn) | –
5.67 | Oc1ccc2oc(C(c3ccc(Cl)cc3)n3cncn3)cc2c1 (stereo not drawn) | –
0.72 | CCC#CCOc1ccc2cc(C(c3ccc(C#N)cc3)n3cncn3)oc2c1 (stereo not drawn) | –
0.46 | CCOc1ccc2cc(C(c3ccc(Cl)cc3)n3cncn3)oc2c1 (stereo not drawn) | –
> 1000 | COc1ccc(C(c2cc3cc(Cl)ccc3o2)n2cncn2)cc1 (stereo not drawn) | –
2.01 | COc1ccc2oc(C(c3ccc(Cl)cc3)n3cncn3)cc2c1 (stereo not drawn) | –
1.03 | C#CCOc1ccc2cc(C(c3ccc(Cl)cc3)n3cncn3)oc2c1 (stereo not drawn) | –
0.09 | CC#CCOc1ccc2cc(C(c3ccc(C#N)cc3)n3cncn3)oc2c1 (stereo not drawn) | IC50 [4]: 2170 nM; IC50 [5]: 2880 nM; IC50 [6]: > 25 µM; Activity [1]: Non-Toxic; IC50 [7]: > 25 µM; IC50 [8]: > 25 µM; Activity [2]: Non-Toxic
21 | CCC#CCOc1ccc2oc(C(c3ccc(Cl)cc3)n3cncn3)cc2c1 (stereo not drawn) | –
2.76 | CCC#CCOc1ccc2cc(C(c3ccc(Cl)cc3)n3cncn3)oc2c1 (stereo not drawn) | –
– | COc1cccc2c1C(=O)c1c(O)c3c(c(O)c1C2=O)C[C@@](O)(C(=O)CO)C[C@@H]3O[C@H]1C[C@H](N)[C@H](O)[C@H](C)O1 [DOXORUBICIN] | Activity [1]: Non-Toxic; Activity [2]: Non-Toxic
